Patent US20250144067A1, “PERSONALIZED STARVATION THERAPY FOR CANCER” (Faeth Therapeutics, Inc., priority 2021, published 2025)
Structures can show the parent of a compound that is named as a salt. Square brackets hold non-standard residues; d marks the D form. Peptide text beside a SMILES is read from it. * marks the point of attachment. dPhe(4-NHCONH2) = NC(=O)Nc1ccc(C[C@@H](N)C(=O)O)cc1; Dihydroorotyl(S) = O=C1C[C@@H](C(=O)*)NC(=O)N1; dPhe(4-Cl) = N[C@H](Cc1ccc(Cl)cc1)C(=O)O; Phe(4-NH2) = Nc1ccc(C[C@H](N)C(=O)O)cc1; d2Nal = N[C@H](Cc1ccc2ccccc2c1)C(=O)O; Lys(iPr) = CC(C)NCCCC[C@H](N)C(=O)O; d3Pal = N[C@H](Cc1cccnc1)C(=O)O

Experiments:
[1] = test system: NCI-H292 lung cancer cells; assay: FDA drug screening, complete media vs cholesterol-free media without statin (TABLE 1); format: cell-based, human
[2] = test system: NCI-H292 lung cancer cells; assay: FDA drug screening, complete media vs cholesterol-free media with simvastatin (TABLE 2); format: cell-based, human; settings: for Cholesterol-free media + simvastatin (0.04 μM) / Complete Media: NCI-H292 cells
[3] = NCI-H292 cells, cholesterol-free media without statin
[4] = complete vs cholesterol-free media, greater than 0 enhanced anti-cancer activity, about 0 neutral, below 0 antagonists
[5] = complete media minus cholesterol-free media + simvastatin, >0 enhanced anti-cancer activity, about 0 neutral, <0 antagonist
[6] = Complete minus Cholesterol-free, […]
[7] = NCI-H292 cells, cholesterol-free media without statin, FDA drug library screen
[8] = NCI-H292 cells, complete media, FDA drug library screen
[9] = FDA drug library screen, cholesterol-free media with simvastatin 0.04 μM
[10] = FDA drug library screen, complete media
[11] = Complete minus Cholesterol-free, greater than 0 enhanced anti-cancer activity, about 0 neutral, below 0 antagonist
[12] = NCI-H292 cells, FDA drug library screen, cholesterol-free media without statin
[13] = NCI-H292 cells, FDA drug library screen, complete media
[14] = Complete minus Cholesterol-free, greater than 0 enhanced anti-cancer activity, about 0 neutral, below 0 antagonists
[15] = NCI-H292 cells in cholesterol-free media without statin
[16] = NCI-H292 cells in complete media
[17] = drug in cholesterol-free media with simvastatin 0.04 μM
[18] = complete media vs cholesterol-free media + simvastatin (0.04 μM), >0 enhanced anti-cancer activity, about 0 neutral, <0 antagonist
[19] = complete vs cholesterol-free media, >0 enhanced anti-cancer activity, about 0 neutral, <0 antagonist
[20] = Complete minus Cholesterol-free, >0 enhanced anti-cancer activity, about 0 neutral, <0 antagonist

Q: Which results are given for `CCCCCCCCc1ccc(CCC(N)(CO)CO)cc1` [Fingolimod (hydrochloride)]?
A: Cholesterol-free [1, 3]: 1.335; Complete ([1]; NCI-H292 cells, complete media): 0.8744; Difference [1, 4]: −0.46; Cholesterol-free media + simvastatin (0.04 μM) ([2]; cholesterol-free media with simvastatin 0.04 μM, cell growth value in FDA drug screen): 0.9867; Complete Media ([2]; complete media, cell growth value in FDA drug screen): 1.023; Difference [2, 5]: 0.04

Q: How did the Difference [1, 6] turn out when Vinblastine (sulfate) was run?
A: 0.04

Q: And the Cholesterol-free [1, 7]?
A: 0.05138

Q: What about the Complete [1, 8] of the same compound?
A: 0.09114

Q: And the “Cholesterol-free media + simvastatin (0.04 μM)” value [2, 9]?
A: 0.2181

Q: And the “Complete Media” value [2, 10]?
A: 0.1119

Q: And the Difference ([2]; complete media vs cholesterol-free media + simvastatin (0.04 μM), […])?
A: −0.11

Q: With `CC(=O)Nc1c(I)c(NC(C)=O)c(I)c(C(=O)O)c1I` [Diatrizoic acid] as the compound, how does the Difference [1, 11] read?
A: −0.07

Q: What about the Cholesterol-free [1, 12] of the same compound?
A: 1.077

Q: What about the Complete [1, 13] of the same compound?
A: 1.004

Q: And the “Cholesterol-free media + simvastatin (0.04 μM)” value [2, 9]?
A: 1.834

Q: What about the Difference ([2]; complete media minus cholesterol-free media + simvastatin (0.04 μM), >0 enhanced anti-cancer activity, about 0 neutral, <0 antagonist) of the same compound?
A: −1.00

Q: For `C=C1CC[C@H](O)C/C1=C/C=C1\CCC[C@]2(C)[C@@H]([C@H](C)CCCC(C)(C)O)CC[C@@H]12` [Calcifediol], which Difference [1, 14] is on record?
A: −0.53

Q: And the Cholesterol-free [1, 15]?
A: 1.425

Q: And the Complete [1, 16]?
A: 0.8976

Q: And the “Cholesterol-free media + simvastatin (0.04 μM)” value [2, 17]?
A: 1.216

Q: What about the “Complete Media” value ([2]; drug in complete media) of the same compound?
A: 1.052

Q: And the Difference [2, 18]?
A: −0.16

Q: For `CO/N=C(\C(=O)N[C@@H]1C(=O)N2C(C(=O)[O-])=C(C[N+]3(C)CCCC3)CS[C@H]12)c1csc(N)n1` [Cefepime (Dihydrochloride Monohydrate)], which Difference [1, 14] is on record?
A: −0.52

Q: What about the Cholesterol-free [1, 15] of the same compound?
A: 1.209

Q: And the Complete [1, 16]?
A: 0.6874

Q: What about the “Cholesterol-free media + simvastatin (0.04 μM)” value [2, 9] of the same compound?
A: 1.15

Q: And the “Complete Media” value [2, 10]?
A: 1.537

Q: And the Difference [2, 5]?
A: 0.39

Q: What does the source list for `CC(=O)N[C@H](Cc1ccc2ccccc2c1)C(=O)N[C@H](Cc1ccc(Cl)cc1)C(=O)N[C@H](Cc1cccnc1)C(=O)N[C@@H](CO)C(=O)N[C@@H](Cc1ccc(NC(=O)[C@@H]2CC(=O)NC(=O)N2)cc1)C(=O)N[C@H](Cc1ccc(NC(N)=O)cc1)C(=O)N[C@@H](CC(C)C)C(=O)N[C@@H](CCCCNC(C)C)C(=O)N1CCC[C@H]1C(=O)N[C@H](C)C(N)=O` [Degarelix] (Ac-[d2Nal][dPhe(4-Cl)][d3Pal]S[Phe(4-NH2)](Dihydroorotyl(S))[dPhe(4-NHCONH2)]L[Lys(iPr)]P[dA]-NH2)?
A: Difference [1, 6]: −0.81; Cholesterol-free [1, 15]: 1.673; Complete [1, 16]: 0.859; Cholesterol-free media + simvastatin (0.04 μM) ([2]; cholesterol-free media with simvastatin 0.04 μM, FDA drug library screen (TABLE 2)): 1.679; Complete Media ([2]; complete media, FDA drug library screen (TABLE 2)): 1.609; Difference ([2]; complete media minus cholesterol-free media + simvastatin (0.04 μM), […]): −0.07

Q: How did the Difference [1, 11] turn out when Masitinib (mesylate) was run?
A: −0.14

Q: What about the Cholesterol-free [1, 12] of the same compound?
A: 1.027

Q: And the Complete [1, 13]?
A: 0.8899

Q: And the “Cholesterol-free media + simvastatin (0.04 μM)” value [2, 9]?
A: 1.086

Q: And the “Complete Media” value [2, 10]?
A: 1.002

Q: And the Difference [2, 18]?
A: −0.08

Q: What does the source list for `CC1(C)S[C@@H]2[C@H](NC(=O)[C@H](C(=O)[O-])c3ccsc3)C(=O)N2[C@H]1C(=O)[O-].[Na+].[Na+]` [Ticarcillin (disodium)]?
A: Cholesterol-free [1, 7]: 0.7001; Complete [1, 8]: 1.43; Difference [1, 19]: 0.73; Cholesterol-free media + simvastatin (0.04 μM) [2, 9]: 1.294; Complete Media [2, 10]: 1.207; Difference [2, 18]: −0.09

Q: How did the Cholesterol-free [1, 3] turn out when `CNCCC=C1c2ccccc2CCc2ccccc21` [Nortriptyline (hydrochloride)] was run?
A: 1.336

Q: What about the Complete ([1]; NCI-H292 cells, complete media) of the same compound?
A: 1.01

Q: What about the Difference [1, 4] of the same compound?
A: −0.33

Q: What about the “Cholesterol-free media + simvastatin (0.04 μM)” value [2, 17] of the same compound?
A: 1.16

Q: What about the “Complete Media” value ([2]; drug in complete media) of the same compound?
A: 0.9078

Q: What about the Difference [2, 18] of the same compound?
A: −0.25

Q: `O=C(O[C@H]1CN2CCC1CC2)N1CCc2ccccc2[C@@H]1c1ccccc1` [Solifenacin] was tested. Which Difference [1, 20] did it give?
A: −0.26

Q: And the Cholesterol-free [1, 3]?
A: 1.142

Q: And the Complete ([1]; NCI-H292 cells, complete media)?
A: 0.8797

Q: What about the “Cholesterol-free media + simvastatin (0.04 μM)” value ([2]; FDA library drug in cholesterol-free media with simvastatin 0.04 μM) of the same compound?
A: 1.222

Q: What about the “Complete Media” value ([2]; FDA library drug in complete media) of the same compound?
A: 0.9497

Q: And the Difference [2, 18]?
A: −0.27

Q: What does the source list for `CCCCCC(=O)O[C@]1(C(C)=O)CC[C@H]2[C@@H]3CCC4=CC(=O)CC[C@]4(C)[C@H]3CC[C@@]21C` [Hydroxyprogesterone caproate]?
A: Cholesterol-free [1, 3]: 1.133; Complete ([1]; NCI-H292 cells, complete media): 0.7393; Difference [1, 4]: −0.39; Cholesterol-free media + simvastatin (0.04 μM) [2, 9]: 1.029; Complete Media [2, 10]: 0.8959; Difference [2, 18]: −0.13

Q: For `CCN(CC)CCOc1ccc2c(c1)C(=O)c1cc(OCCN(CC)CC)ccc1-2` [Tilorone (dihydrochloride)], which Difference [1, 20] is on record?
A: −0.30

Q: What about the Cholesterol-free [1, 3] of the same compound?
A: 1.404

Q: What about the Complete ([1]; NCI-H292 cells, complete media) of the same compound?
A: 1.104

Q: What about the “Cholesterol-free media + simvastatin (0.04 μM)” value [2, 17] of the same compound?
A: 1.099

Q: And the “Complete Media” value ([2]; drug in complete media)?
A: 0.8748

Q: And the Difference [2, 18]?
A: −0.22

Q: Which results are given for `COC(=O)CCc1ccc(OCC(O)CNC(C)C)cc1` (centres unmarked) [Esmolol (hydrochloride)]?
A: Cholesterol-free [1, 7]: 0.7243; Complete [1, 8]: 0.9329; Difference [1, 19]: 0.21; Cholesterol-free media + simvastatin (0.04 μM) [2, 9]: 1.21; Complete Media [2, 10]: 1.054; Difference [2, 18]: −0.16
